Marks after values point to notes of the source that are not given here.
How the values were obtained:
[1] = system: SKOV3 tumor; assay: SKOV3 ovarian tumor progression in nude mice; type: in vivo; settings: Mean ± S.E.
Protocol: Human mAb LT3015 reduced ovarian tumor SKOV3 progression and circulating cytokines in biological fluids. Nude mice were engrafted with either 10 mg/kg LT3015, vehicle, or 2 mg/kg paclitaxel (Taxol). After 56 days, mice were sacrificed and the peritoneal cavities were analyzed for tumor burden and ascites fluid accumulation. Tumors were harvested and final tumor weights were determined along with ascites volumes. Data were analyzed by ANOVA and student's t-test analysis. […] Serum and ascites levels of IL-6, IL-8, GM-CSF and VEGF were measured using ELISA kits from R&D systems, Minneapolis Minn.

[2] = system: IL-6 release in SKOV3 cells; assay: LPA-induced IL-6 release in SKOV3 cells; type: cell-based, human; settings: 1 uM LPA alone
Protocol: Anti-LPA antibodies inhibit the LPA-dependant release of human CXCL8/IL-8 in conditioned media of SKOV3 ovarian cells. SKOV3 cells (Lot No 4255558, passage 14) were harvested with 2 ml of 1× Trypsin EDTA (Mediatech Inc, Cat. No 25-053-CV) and resuspended in 8 ml of complete medium (10% FBS, Mediatech Inc. Cat. no 35-011-CV). The cells were centrifuged for 5 min ([…]) and re-suspended in 5 ml of complete medium. Cells were counted in duplicate with 0.4% Trypan blue (10 ul cells plus 90 ul Trypan blue, Invitrogen, Cat. No 15250-061) using a hemocytometer. In a 96-well plate, 1×10^5 cells per well were seeded (final volume 100 ul/well). The cells were allowed to attach and form a confluent monolayer by incubating overnight at 37° C. On the following day, cells were gently washed two times with minimum media (1 mg/ml BSA in McCoy's medium with L-glutamine, Mediatech, Cat. No 10-050-CV). […] The CXCL8/IL-8 levels in each supernatant were measured using the Quantikine human CXCL8/IL-8 ELISA kit according to vendor instructions (R&D Systems, Minneapolis Minn., Cat. No D8000C). The IL-6 levels were measured by ELISA using the Quantikine human IL-6 immunoassay kit (R&D systems, Cat. No. D6050). Data were analyzed by one-way ANOVA followed by Bonferroni's post test and expressed as human IL-8 or human IL-6 fold increase.

[3] = system: IL-8 release in SKOV3 cells; assay: LPA-induced IL-8 release in SKOV3 cells; type: cell-based, human; settings: 1 uM LPA alone
Protocol: Anti-LPA antibodies inhibit the LPA-dependant release of human CXCL8/IL-8 in conditioned media of SKOV3 ovarian cells. SKOV3 cells (Lot No 4255558, passage 14) were harvested with 2 ml of 1× Trypsin EDTA (Mediatech Inc, Cat. No 25-053-CV) and resuspended in 8 ml of complete medium (10% FBS, Mediatech Inc. Cat. no 35-011-CV). The cells were centrifuged for 5 min ([…]) and re-suspended in 5 ml of complete medium. Cells were counted in duplicate with 0.4% Trypan blue (10 ul cells plus 90 ul Trypan blue, Invitrogen, Cat. No 15250-061) using a hemocytometer. In a 96-well plate, 1×10^5 cells per well were seeded (final volume 100 ul/well). The cells were allowed to attach and form a confluent monolayer by incubating overnight at 37° C. On the following day, cells were gently washed two times with minimum media (1 mg/ml BSA in McCoy's medium with L-glutamine, Mediatech, Cat. No 10-050-CV). The media was adjusted to 1% penicillin/streptomycin (Mediatech, Cat. No 30-002 CI) and 2.2 g/L sodium-bicarbonate (Mediatech, Cat. No 25-035-CI). Next, the cells were serum-starved at 37° C. for exactly 24 h, followed by cytokine stimulation with 1 uM C18:1 LPA (Avanti, Cat. No 857130) dissolved in 1 mg/ml BSA/PBS (Calbiochem, Cat. No 126575) which was pre-incubated in presence or absence of humanized LPA antibody LT3015 (150, 300 or 600 ug/mL) for one hour. Treatments were then added to the cells. After 22 h of cytokine stimulation, the cells were centrifuged for 5 min (13,500 rpm) at 4° C. and the supernatants (cell-conditioned media) were collected. The CXCL8/IL-8 levels in each supernatant were measured using the Quantikine human CXCL8/IL-8 ELISA kit according to vendor instructions (R&D Systems, Minneapolis Minn., Cat. No D8000C). The IL-6 levels were measured by ELISA using the Quantikine human IL-6 immunoassay kit (R&D systems, Cat. No. D6050). Data were analyzed by one-way ANOVA followed by Bonferroni's post test and expressed as human IL-8 or human IL-6 fold increase.

[4] = system: SKOV3 cells; assay: Scratch assay, SKOV3 tumor cell migration; type: cell-based, human; settings: 17 hr
Protocol: SKOV3 cells were plated at 15,000 cells per well in a 96-well plate. The following day the cells were serum starved in minimal media (McCoy's Media 5a, adjusted to contain L-Glutamine, 2.2 g/L Sodium Bicarbonate, 1% penicillin/streptomycin and 1 mg/ml BSA) for 24 hrs. At time 0 cells were scratched with a p200 pipet tip down the center of each well, washed with minimal media and pictures were taken prior to treatment. Cells were then treated with LPA (C18:1) at 0.2 uM, 1.0 uM and 10 uM concentrations which were pre-incubated at 37° C. with […] in the presence or absence of antibody at 150 ug/ml. Positive control (10% FBS treated cells) and antibody alone added to 1 uM LPA, were also tested. Cells were stimulated for 17 hrs at 37° C. in a 5% CO2 incubator. Pictures were taken again 17 hr post-treatment and % wound closure was measured by adjusting pictures to the same size and measuring the width of the scratch at time 0 and time 17 hr with a ruler. Data were analyzed by Student's t-test.

[5] = system: IL-8 in Caki-1 cells; assay: LPA-induced IL-8 production in Caki-1 cells; type: cell-based, human; settings: 18:1 LPA (0.2 mM), non-treated cells, average
Protocol: Three anti-LPA mAbs (B3, B7 and B58) were tested for their abilities to reduce in vitro IL-8 production compared to a non-specific antibody (NS). Caki-1 cells were seeded in 96 well plates and grown to confluency. After overnight serum starvation, cells were treated with 18:1 LPA (0.2 mM) with or without anti-LPA mAb B3, B7, B58 or NS (Non-Specific). After 24 h, cultured supernatants of renal cancer cells (Caki-1), treated with or without LPA and in presence of increasing concentrations of the anti-LPA mAbs B3, B7 and B58, were collected and analyzed for IL-8 levels using a commercially available ELISA kit (Human Quantikine Kit, R&D Systems, Minneapolis, Minn.). […] The inhibition of IL-8 release by the anti-LPA mAbs was also observed in other cancerous cell lines such as the pancreatic cell line Panc-1.

Compound	Ascites volume [1] [mL]	Human IL-6 Fold Increase (approx). [2]	Human IL-8 Fold Increase (approx). [3]	Percent wound closure (approx.) ([4]; 0.2 uM LPA) [%]	Percent wound closure (approx.) ([4]; 1.0 uM LPA) [%]	Percent wound closure (approx.) ([4]; 10 uM LPA) [%]	increase of IL-8 expression [5] [%]
CC(=O)O[C@H]1C(=O)[C@@]2(C)[C@H]([C@H](OC(=O)c3ccccc3)[C@]3(O)C[C@H](OC(=O)[C@H](O)[C@@H](NC(=O)c4ccccc4)c4ccccc4)C(C)=C1C3(C)C)[C@]1(OC(C)=O)CO[C@@H]1C[C@@H]2O [Taxol, paclitaxel, reference compound]	0.2 ± 0.0						
Lysophosphatidic acid [LPA, reference compound]		~29##	~7.1##	~65	~81	~89	100
